Data set [1] is described as follows: Cytotoxicity, ATP levels, normal human keratinocytes (NHK). It is filed as cell-based. Particulars: normal human keratinocytes (NHK). The procedure:
The viability of RDEB patient-derived cell lines or NHK was evaluated by measuring the ATP levels as an indirect readout of the potential cytotoxicity effect of compounds. Cells were plated and treated exactly with the same conditions as those followed in the AlphaLISA assay, described above. To measure ATP levels, cells were processed using the ATPlite™ 1step luminescence-based assay (PerkinElmer 6,016,731), following the manufacturer’s protocol. 25 μL of ATPlite™ reagent was added directly over cells and plates were covered with a sealing film and shaken for 25 min using a microtiter plate shaker. Luminescence was measured in a Luminoskan Ascent luminometer (Thermo Fisher Scientific). 10 μM of Staurosporine was used as a reference compound and control for the total cytotoxicity.

Data set [2] relates to truncated and full-length C7 in RDEB_L1, RDEB_L5 and HEK293^R578X cells. Briefly: Western blot detection of truncated and full-length C7. Format: cell-based, human. The procedure:
For western blot, RDEB or normal human keratinocytes were lysed in protein extraction buffer (50 mM Tris–HCl [pH 7.5], 100 mM NaCl, 1% Nonidet P-40, and 4 mM EDTA) containing proteinase inhibitors cocktail (Complete Mini, EDTA free; Roche Diagnostics, Mannheim, Germany). Lysates were incubated for 30 min on ice and centrifuged at 15,000 g for 30 min at 4 °C. Supernatants were then collected and concentrated by ultrafiltration using Amicon Ultra columns (10 kDa; Millipore, Ireland). Protein concentrations were measured using the Bradford assay (Bio-Rad, Hercules, CA). For each sample, […] total protein was resolved on NuPAGE Novex 3%–8% Tris–Acetate gel electrophoresis (Invitrogen, Carlsbad, CA) and electrotransferred to nitrocellulose membranes (Invitrogen, Carlsbad, CA). For type VII collagen analysis, blots were probed with a monospecific polyclonal anti-C7 antibody (a generous gift from Dr. A. Nystrom, University of Freiburg). Invitrogen anti-MDH1 polyclonal antibody (PA550446, 1:1000) was used to detect MDH1. Standard antibodies against a reference protein were used as a loading control, as indicated. Visualization of the resulting signal was performed by incubating with horseradish peroxidase (HRP)- conjugated anti-rabbit antibody (Amersham, Burlington, MA) and West Pico Chemiluminescent Substrate (Pierce, Rockford, IL).
For orientation: In western blotting, separated proteins are transferred to a membrane and probed.

Data set [3] has as its system COL7A1 mRNA in RDEB_L1 and RDEB_L5 cells. Nature of the data set: Real-time qPCR of COL7A1 mRNA. Format: cell-based, human. The conditions noted are these: 24 h, 20 ng/mL TGFβ2. On the procedure:
For real-time qPCR, 15,000 RDEB keratinocytes or normal human epidermal keratinocytes were plated in a 96-well cell culture plate in 80 µL of supplemented KGM medium without GA-1000 and containing 20 ng/mL of TGFβ2 for RDEB keratinocytes, and cells were incubated overnight at 37 °C and 5%CO2. The day after, cells were treated with 20 µL of test compounds prepared 5 × in supplemented KGM without GA-100, for 24 h at 37 °C and 5% CO2. For the mRNA extraction, the medium was removed, cells were washed with PBS, and conserved at -80 °C until the total RNA extraction.
RNA extraction was conducted using the RNeasy 96 Kit (4) (Qiagen 74181) following the manufacturer’s instructions. Total RNA was recovered in 50 µL of RNase-free water and the yield of extracted RNA was quantified using a NanoDrop 2000 Spectrophotometer (ThermoFisher). Purified RNA was stored at -80 °C until RT-qPCR.
Real time-qPCR was performed by using the iTaq Universal Probes One-Step Kit, (cat. 1725140, Bio-Rad) and according to the manufacturer’s instructions. […] RT-qPCR was performed to quantify the COL7A1 mRNA (exon 64) expression.
For COL7A1 quantitative gene expression, human GAPDH was used as the endogenous control. Results were analyzed with the QuantStudio Real-Time PCR Software.
For orientation: Quantitative PCR measures a nucleic acid by following its amplification.

Data set [4] has as its system MDH1 native stop codon readthrough in RDEB_L1 and RDEB_L5 cells. Briefly: Western blot of MDH1 native stop codon (NSC) readthrough selectivity. It is filed as cell-based, human. The conditions noted are these: 48 h. The source says:
In the absence of a verified target or mechanism of action, a key aspect of phenotypic screening is to ensure that the phenotypic activity is sufficiently selective and has minimal or no interference in physiologically close cellular processes. In this context, the selectivity of readthrough compounds vs native stop codons (NSC) and normal codon–anticodon recognition is an important endpoint to verify the selectivity of hit compounds. For that purpose, we analyzed the translation products of MDH-1, a gene that has an alternative native stop codon that has been used as a surrogate of non-specific readthrough activity[42],[43]. […] For western blot, RDEB or normal human keratinocytes were lysed in protein extraction buffer (50 mM Tris–HCl [pH 7.5], 100 mM NaCl, 1% Nonidet P-40, and 4 mM EDTA) containing proteinase inhibitors cocktail (Complete Mini, EDTA free; Roche Diagnostics, Mannheim, Germany). Lysates were incubated for 30 min on ice and centrifuged at 15,000 g for 30 min at 4 °C. Supernatants were then collected and concentrated by ultrafiltration using Amicon Ultra columns (10 kDa; Millipore, Ireland). Protein concentrations were measured using the Bradford assay (Bio-Rad, Hercules, CA). […] A. Nystrom, University of Freiburg). Invitrogen anti-MDH1 polyclonal antibody (PA550446, 1:1000) was used to detect MDH1. […]

Where [5] appears, read: human, NHK cells, ATP levels, read-out: Cytotox. IC50.

We go through three molecules from paper PMC11329504, “Identification of novel small molecule-based strategies of COL7A1 upregulation and readthrough activity for the treatment of recessive dystrophic epidermolysis bullosa” (Scientific Reports, 2024).

Like-named read-outs stand apart in the source and are kept apart here.

On to `C#Cc1cc(-c2ccncc2)c(-c2cccc(F)c2)nc1N` [Compound 7], for which, in data set [1] (read-out: cytotoxicity IC50), the concentration for half-maximal inhibition (IC50) was more than 100 µM. For the same molecule, in data set [2] (RDEB_L1 and HEK293^R578X cells, 50 μM compound 7, 50 μM chuangxinmycin, 100 μM 3-methyl-chuangxinmycin), the “C7 products induced, western blot” value is on record as “partially upregulated full-length C7”. Further, in data set [3], the “levels of COL7A1 mRNA (qPCR)” value is recorded as “did not result in an increase in C7 mRNA levels”. In data set [4] (two and threefold above its EC50 in RDEB_L5 and RDEB_L1 cells respectively), the “non-specific readthrough at MDH-1 native stop codon, western blot” value is listed as “did not induce non-specific readthrough above background levels”.
For the molecule `NC(=O)Cn1ccc2ccc(-c3cnc(N)c(C(=O)NC4C5CC6CC4CC(O)(C6)C5)n3)cc21` (stereo not shown) [Compound 1], the IC50 in data set [1] (setting [5]) is 19 ± 2.4 µM. Also, the “C7 products induced, western blot” value in data set [2] (RDEB_L1 cells, 10 μM) was “only upregulating the truncated form of C7”. Besides, in data set [3], the “levels of COL7A1 mRNA (qPCR)” value is listed as “TGFβ2 was required for full upregulation”.
With `CNC(C)C1CCC(N)C(OC2C(N)CC(N)C(OC3OCC(C)(O)C(NC)C3O)C2O)O1` (stereo not shown) [Gentamicin, reference compound], the IC50 in data set [1] (setting [5]) amounted to 1600 ± 280 µM. Also, in data set [2] (western blot), the “concentrations showing some upregulation of truncated and full-length forms of C7 in western blot” value is reported as more than 1 mM. In addition, the “non-specific readthrough at MDH-1 native stop codon, western blot” value in data set [4] (twofold above its EC50 in RDEB_L1) was “inducing detectable non-specific readthrough”.

For orientation: IC50 means the concentration that inhibits the measured activity by half.
